Results taken from US10213429B2, “Imidazo-pyrazinyl derivatives useful as soluble guanylate cyclase activators” (Merck Sharp & Dohme Corp., priority 2015, dated 2019).

What was measured:
sGC α1/β1 heterodimer = biological target: T1, sGC α1/β1 heterodimer (Homo sapiens, UniProt Q02108+Q02153); assay: Cell-Based sGC Functional Assay (CASA Assay), cGMP by HTRF in CHO-K1/sGC cells; conditions: for Emax: CHO-K1, percent activation relative to maximum cGMP production of Compound A (= 100%), read-out: % Act.; for EC50: cGMP production, 1 hr at 37° C., 4P fit, presence or absence of 1 μM DETA-NO not given, read-out: IP (nM) (inflection point)
T1 construct: expressed in transfected cells; host or cells: CHO-K1 (clone #7, CHO-K1/sGC)
T1 sequence (Q02108 1-690): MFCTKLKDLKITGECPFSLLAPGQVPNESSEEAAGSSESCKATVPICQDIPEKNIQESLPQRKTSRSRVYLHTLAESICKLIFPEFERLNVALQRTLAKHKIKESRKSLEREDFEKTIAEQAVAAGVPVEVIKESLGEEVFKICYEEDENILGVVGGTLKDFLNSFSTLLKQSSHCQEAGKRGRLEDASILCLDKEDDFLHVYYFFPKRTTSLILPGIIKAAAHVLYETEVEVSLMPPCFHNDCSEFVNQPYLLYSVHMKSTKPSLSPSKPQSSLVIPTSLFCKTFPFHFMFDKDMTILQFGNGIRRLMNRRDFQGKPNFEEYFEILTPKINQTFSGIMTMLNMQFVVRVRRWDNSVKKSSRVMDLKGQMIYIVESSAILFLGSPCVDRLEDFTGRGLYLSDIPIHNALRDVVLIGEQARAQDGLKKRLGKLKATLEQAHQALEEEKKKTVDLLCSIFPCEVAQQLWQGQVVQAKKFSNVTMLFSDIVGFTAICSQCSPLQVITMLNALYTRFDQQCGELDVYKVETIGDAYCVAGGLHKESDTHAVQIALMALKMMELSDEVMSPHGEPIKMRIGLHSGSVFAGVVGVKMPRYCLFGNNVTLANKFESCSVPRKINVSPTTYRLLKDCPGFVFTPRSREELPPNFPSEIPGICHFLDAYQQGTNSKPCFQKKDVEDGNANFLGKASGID
T1 sequence (Q02153 1-619): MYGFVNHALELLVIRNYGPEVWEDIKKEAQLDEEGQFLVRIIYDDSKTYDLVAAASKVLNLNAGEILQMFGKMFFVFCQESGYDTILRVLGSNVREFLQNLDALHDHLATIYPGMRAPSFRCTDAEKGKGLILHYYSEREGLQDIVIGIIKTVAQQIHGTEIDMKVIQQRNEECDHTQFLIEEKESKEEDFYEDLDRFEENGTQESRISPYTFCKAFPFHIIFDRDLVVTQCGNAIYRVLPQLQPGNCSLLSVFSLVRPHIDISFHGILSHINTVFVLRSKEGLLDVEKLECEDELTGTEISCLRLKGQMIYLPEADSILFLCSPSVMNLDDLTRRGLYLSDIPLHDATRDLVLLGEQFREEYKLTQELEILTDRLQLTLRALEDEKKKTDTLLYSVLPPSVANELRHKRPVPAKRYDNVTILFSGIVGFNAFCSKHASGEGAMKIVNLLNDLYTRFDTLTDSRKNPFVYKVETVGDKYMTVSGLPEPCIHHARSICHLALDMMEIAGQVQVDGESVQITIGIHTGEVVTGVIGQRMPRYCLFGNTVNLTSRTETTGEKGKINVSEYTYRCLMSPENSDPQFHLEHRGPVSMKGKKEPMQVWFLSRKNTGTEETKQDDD
Summary of the method: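 CHO-K1 cells stably expressing human sGC α1/β1, in EBSS buffer with 5 mM MgCl2, 10 mM HEPES, 0.05% BSA and 0.5 mM IBMX, incubated with compound (2.5% DMSO) ± 1 μM DETA-NO, 1 h, 37 °C. Intracellular cGMP read by HTRF; activity as % of reference activator maximum, IP from 4-parameter fit.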

[1] = tested on: Spontaneously hypertensive rats (SHR); assay: Acute Efficacy in Spontaneously Hypertensive Rats (SHR), telemetry blood pressure; assay type: in vivo, rat; conditions: SHR male
Summary of the method: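 Male SHR with aortic telemetry, conscious and freely moving, recovered 14 days post-surgery. Single oral gavage; vehicle 10% transcutol/20% Cremophor/70% water dosed the day before as baseline. Hourly blood pressure averages minus baseline; maximum peak systolic decrease reported at a stated oral dose (mpk).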

| Emax (sGC α1/β1 heterodimer) [%] | EC50 (sGC α1/β1 heterodimer) [nM] | SMILES | Cat. (maximum peak decrease of systolic blood pressure (SBP) in SHR) ([1]; single oral dose 1.0 mpk P.O.) | Cat. (maximum peak decrease of systolic blood pressure (SBP) in SHR) ([1]; single oral dose 3.0 mpk P.O.) |
| --- | --- | --- | --- | --- |
| 155 | 63 | O=C1Nc2nc(-c3cn4ccnc4c(CCCC(F)(F)F)n3)ncc2C1(c1ccc(Cl)cc1)C1CC1 (stereo not drawn) [Example 50B, 5-(4-chlorophenyl)-5-cyclopropyl-2-(8-(4,4,4-trifluorobutyl)imidazo[1,2-a]pyrazin-6-yl)-5H-pyrrolo[2,3-d]pyrimidin-6(7H)-one] | B (Category B=SBP in SHRs 20-40 mmHg) | – |
| 148 | 190 | O=C1Nc2nc(-c3cn4ccnc4c(CCCC(F)(F)F)n3)nc(O)c2C1(c1ccc(F)cc1)C1CC1 (stereo not drawn) [Example 35B, 5-cyclopropyl-5-(4-fluorophenyl)-4-hydroxy-2-(8-(4,4,4-trifluorobutyl)imidazo[1,2-a]pyrazin-6-yl)-5H-pyrrolo[2,3-d]pyrimidin-6(7H)-one] | – | A (Category A=SBP in SHRs<20 mmHg) |
| 95 | 245 | CC1(c2ccc(Cl)cn2)C(=O)Nc2nc(-c3cn4ccnc4c(CCCC(F)(F)F)n3)nc(O)c21 (stereo not drawn) [Example 28A, 5-(5-chloropyridin-2-yl)-4-hydroxy-5-methyl-2-(8-(4,4,4-trifluorobutyl)imidazo[1,2-a]pyrazin-6-yl)-5H-pyrrolo[2,3-d]pyrimidin-6(7H)-one] | A (Category A=SBP in SHRs<20 mmHg) | – |
| 95 | 70 | CC1(c2ccc(Cl)c(F)c2)C(=O)Nc2nc(-c3cn4ccnc4c(CCC(F)(F)F)n3)ncc21 (stereo not drawn) [Example 56B, 5-(4-chloro-3-fluorophenyl)-5-methyl-2-(8-(3,3,3-trifluoropropyl)imidazo[1,2-a]pyrazin-6-yl)-5H-pyrrolo[2,3-d]pyrimidin-6(7H)-one] | A (Category A=SBP in SHRs<20 mmHg) | – |
